Test: pKa of the sulfonimide-based compound (Table 1)

Row | pKa | Structure (SMILES)
1 | 8.3 | O=C1NC(=O)c2ccccc21 [Phthalimide]
2 | 9.5 | O=C1CCC(=O)N1 [Succimide]
